Test results reported in PubChem BioAssay AID248 (DTP/NCI, 2004).
Toxic doses and inconclusive results are not listed. Cut-off read from the data, not from the text of the source: active = T/C of 150% or more; inactive = T/C below 125%.

System: L1210 leukemia ip in BDF1 mice, survival T/C
Assay: NCI In Vivo Anticancer Drug Screen. Data for tumor model L1210 Leukemia (intraperitoneal) in B6D2F1 (BDF1) mice
Conditions: higher = longer survival
How it was run: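 Antitumor effect is assessed in tumor-bearing animals. Survival in the compound arm is compared with a vehicle-dosed control arm and expressed as their quotient.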

[1] = endpoint: mean survival time, dose: 100.0 mg/kg/injection, schedule: Q01DX009 (ip), vehicle: saline with Tween-80
[2] = endpoint: mean survival time, dose: 100.0 mg/kg/injection, schedule: Q04DX003 (ip), vehicle: Klucel (hydroxypropylcellulose) (HPC)
[3] = endpoint: mean survival time, dose: 200.0 mg/kg/injection, schedule: Q01DX009 (ip), vehicle: saline with Tween-80
[4] = endpoint: mean survival time, dose: 200.0 mg/kg/injection, schedule: Q04DX003 (ip), vehicle: Klucel (hydroxypropylcellulose) (HPC)
[5] = endpoint: mean survival time, dose: 400.0 mg/kg/injection, schedule: Q01DX009 (ip), vehicle: saline with Tween-80
[6] = endpoint: mean survival time, dose: 400.0 mg/kg/injection, schedule: Q04DX003 (ip), vehicle: Klucel (hydroxypropylcellulose) (HPC)
[7] = endpoint: mean survival time, dose: 100.0 mg/kg/injection, schedule: Q01DX001 (ip), vehicle: saline
[8] = endpoint: mean survival time, dose: 200.0 mg/kg/injection, schedule: Q01DX001 (ip), vehicle: saline
[9] = endpoint: mean survival time, dose: 400.0 mg/kg/injection, schedule: Q01DX001 (ip), vehicle: saline
[10] = endpoint: mean survival time, dose: 100.0 mg/kg/injection, schedule: Q01DX009 (ip), vehicle: Klucel (hydroxypropylcellulose) (HPC)
[11] = endpoint: mean survival time, dose: 200.0 mg/kg/injection, schedule: Q01DX009 (ip), vehicle: Klucel (hydroxypropylcellulose) (HPC)
[12] = endpoint: mean survival time, dose: 400.0 mg/kg/injection, schedule: Q01DX009 (ip), vehicle: Klucel (hydroxypropylcellulose) (HPC)
[13] = endpoint: mean survival time, dose: 100.0 mg/kg/injection, schedule: Q04DX003 (ip), vehicle: saline with Tween-80
[14] = endpoint: mean survival time, dose: 200.0 mg/kg/injection, schedule: Q04DX003 (ip), vehicle: saline with Tween-80
[15] = endpoint: mean survival time, dose: 400.0 mg/kg/injection, schedule: Q04DX003 (ip), vehicle: saline with Tween-80
[16] = endpoint: mean survival time, dose: 100.0 mg/kg/injection, schedule: Q01DX001 (ip), vehicle: carboxymethylcellulose (CMC)
[17] = endpoint: mean survival time, dose: 200.0 mg/kg/injection, schedule: Q01DX001 (ip), vehicle: carboxymethylcellulose (CMC)
[18] = endpoint: mean survival time, dose: 400.0 mg/kg/injection, schedule: Q01DX001 (ip), vehicle: carboxymethylcellulose (CMC)
[19] = endpoint: mean survival time, dose: 100.0 mg/kg/injection, schedule: Q04DX002 (ip), vehicle: saline with Tween-80
[20] = endpoint: mean survival time, dose: 100.0 mg/kg/injection, schedule: Q01DX001 (ip), vehicle: Klucel (hydroxypropylcellulose) (HPC)
[21] = endpoint: mean survival time, dose: 200.0 mg/kg/injection, schedule: Q01DX001 (ip), vehicle: Klucel (hydroxypropylcellulose) (HPC)
[22] = endpoint: mean survival time, dose: 400.0 mg/kg/injection, schedule: Q01DX001 (ip), vehicle: Klucel (hydroxypropylcellulose) (HPC)

Measured: T/C

CC1(C)CCC2(C)CC=C3OC(=O)CCC3(C)C2C1 (stereo unspecified)
inactive: [1] 92 % of control | [2] 102 % of control | [3] 89 % of control | [4] 98 % of control | [5] 94 % of control | [6] 94 % of control

Cc1nnc(NS(=O)(=O)c2ccc(N=Nc3c(N)[nH]c(=O)[nH]c3=O)cc2)s1
inactive: [7] 96 % of control | [8] 111 % of control | [9] 98 % of control

CC(=O)NCc1ccc(N2C(N)=NC(N)=NC2(C)C)cc1
inactive: endpoint: mean survival time, dose: 75.0 mg/kg/injection, schedule: Q01DX009 (ip), vehicle: saline 92 % of control | endpoint: mean survival time, dose: 150.0 mg/kg/injection, schedule: Q01DX009 (ip), vehicle: saline 87 % of control | endpoint: mean survival time, dose: 300.0 mg/kg/injection, schedule: Q01DX009 (ip), vehicle: saline 90 % of control

O=C(O)C1C(c2ccccc2)=C1c1ccc(Br)cc1 (stereo unspecified)
inactive: [10] 100 % of control | [2] 93 % of control | [11] 118 % of control | [4] 102 % of control | [12] 101 % of control | [6] 88 % of control

C/C(=N/Nc1ccc([N+](=O)[O-])cc1)c1ccncc1
inactive: endpoint: mean survival time, dose: 50.0 mg/kg/injection, schedule: Q01DX009 (ip), vehicle: Klucel (hydroxypropylcellulose) (HPC) 101 % of control | [10] 111 % of control | [11] 89 % of control | [12] 105 % of control

COc1ccc(C(C#N)N2CCCC2)cc1 (stereo unspecified)
inactive: endpoint: mean survival time, dose: 6.25 mg/kg/injection, schedule: Q01DX009 (ip), vehicle: other 95 % of control | endpoint: mean survival time, dose: 6.25 mg/kg/injection, schedule: Q04DX003 (ip), vehicle: other 98 % of control | endpoint: mean survival time, dose: 12.5 mg/kg/injection, schedule: Q01DX009 (ip), vehicle: other 95 % of control | endpoint: mean survival time, dose: 12.5 mg/kg/injection, schedule: Q04DX003 (ip), vehicle: other 104 % of control | endpoint: mean survival time, dose: 25.0 mg/kg/injection, schedule: Q04DX003 (ip), vehicle: other 96 % of control

O=P(O)(N(CCCl)CCCl)N1CCN(P(=O)(O)N(CCCl)CCCl)CC1
inactive: endpoint: mean survival time, dose: 10.0 mg/kg/injection, schedule: Q01DX015 (ip), vehicle: saline 110 % of control | endpoint: mean survival time, dose: 30.0 mg/kg/injection, schedule: Q01DX015 (ip), vehicle: saline 119 % of control | [7] 115 % of control | [8] 113 % of control | [9] 124 % of control

O=C(O)c1ccnc(Cl)c1
inactive: [13] 101 % of control | [14] 102 % of control | [15] 101 % of control

CC12CCC(CC(=O)O1)C2(C)C (stereo unspecified)
inactive: endpoint: mean survival time, dose: 75.0 mg/kg/injection, schedule: Q01DX001 (ip), vehicle: saline 114 % of control

O=C(OC1COC(n2c(=O)oc3cc(Br)c(Cl)cc32)C(OC(=O)c2ccccc2)C1OC(=O)c1ccccc1)c1ccccc1 (stereo unspecified)
inactive: [16] 96 % of control | [17] 96 % of control | [18] 89 % of control

Nc1nc(CO)c(CCCCc2ccccc2)c(=O)[nH]1
inactive: endpoint: mean survival time, dose: 50.0 mg/kg/injection, schedule: Q01DX001 (ip), vehicle: saline 101 % of control | [7] 101 % of control | [8] 98 % of control | [9] 101 % of control

CCN(N=O)c1ccc(/C=C2/C=Cc3ccccc32)cc1
inactive: [16] 95 % of control | [17] 90 % of control | [18] 101 % of control

CCCCCCCC/C=C\CCCCCCCC(=O)NCCCOCCOCC
inactive: endpoint: mean survival time, dose: 75.0 mg/kg/injection, schedule: Q04DX003 (ip), vehicle: saline 94 % of control | endpoint: mean survival time, dose: 150.0 mg/kg/injection, schedule: Q04DX003 (ip), vehicle: saline 96 % of control | endpoint: mean survival time, dose: 300.0 mg/kg/injection, schedule: Q04DX003 (ip), vehicle: saline 96 % of control

CCOC(=O)c1nc2c(OC)nn(O)cc-2c1Br
inactive: endpoint: mean survival time, dose: 25.0 mg/kg/injection, schedule: Q04DX002 (ip), vehicle: saline with Tween-80 92 % of control | endpoint: mean survival time, dose: 50.0 mg/kg/injection, schedule: Q04DX002 (ip), vehicle: saline with Tween-80 89 % of control | [19] 96 % of control

CCCCCCC(CCC1CCCCC1)C(=O)O (stereo unspecified)
inactive: endpoint: mean survival time, dose: 100.0 mg/kg/injection, schedule: Q01DX001 (ip), vehicle: saline with Tween-80 88 % of control | endpoint: mean survival time, dose: 200.0 mg/kg/injection, schedule: Q01DX001 (ip), vehicle: saline with Tween-80 96 % of control | endpoint: mean survival time, dose: 400.0 mg/kg/injection, schedule: Q01DX001 (ip), vehicle: saline with Tween-80 92 % of control

NC(=S)S.[Zn+2]
inactive: endpoint: mean survival time, dose: 13.3 mg/kg/injection, schedule: Q01DX Z (ip), vehicle: methylcellulose (MC) 96 % of control | endpoint: mean survival time, dose: 20.0 mg/kg/injection, schedule: Q01DX Z (ip), vehicle: methylcellulose (MC) 90 % of control | endpoint: mean survival time, dose: 30.0 mg/kg/injection, schedule: Q01DX Z (ip), vehicle: methylcellulose (MC) 90 % of control

COc1ccc(OC(=O)OCc2ccc(OC)c(OC)c2)cc1
inactive: [13] 102 % of control | [14] 96 % of control | [15] 96 % of control

CCOC(=O)c1[nH]c(C)nc1/N=N/N(C)C
inactive: endpoint: median survival time, dose: 25.0 mg/kg/injection, schedule: Q01DX009 (ip), vehicle: Klucel (hydroxypropylcellulose) (HPC) 116 % of control

O=C(O)c1cccc(C(=O)c2ccccc2)c1O
inactive: [16] 97 % of control | [17] 100 % of control | [18] 92 % of control

CC1C(c2ccccc2)CC(c2ccccc2)OS1(=O)=O (stereo unspecified)
inactive: [20] 95 % of control | [2] 103 % of control | [21] 97 % of control | [4] 94 % of control | [22] 93 % of control | [6] 97 % of control

O=C(Cn1cc(F)c(=O)[nH]c1=O)c1ccc(Cl)s1
inactive: [1] 108 % of control | [13] 100 % of control | [3] 89 % of control | [14] 97 % of control | [5] 97 % of control | [15] 102 % of control

CCc1cc(/C=C2\C(=O)C=Cc3ccccc32)c(O)s1
inactive: [19] 89 % of control | endpoint: mean survival time, dose: 400.0 mg/kg/injection, schedule: Q04DX002 (ip), vehicle: saline with Tween-80 89 % of control

CC(O)c1ccc2ccccc2c1 (stereo unspecified)
inactive: [13] 98 % of control | [14] 101 % of control | [15] 96 % of control

CCOC(=O)C(Cc1ccccc1)C1=NC(C)(C)CC(C)O1 (stereo unspecified)
inactive: endpoint: mean survival time, dose: 10.0 mg/kg/injection, schedule: Q01DX009 (ip), vehicle: alcohol 100 % of control | endpoint: mean survival time, dose: 200.0 mg/kg/injection, schedule: Q01DX009 (ip), vehicle: alcohol 104 % of control | endpoint: mean survival time, dose: 400.0 mg/kg/injection, schedule: Q01DX009 (ip), vehicle: alcohol 102 % of control

CC(=O)C(C(=O)c1ccccc1)C(c1ccccc1)c1ccccc1 (stereo unspecified)
inactive: [20] 93 % of control | [2] 92 % of control | [21] 90 % of control | [4] 96 % of control | [22] 92 % of control | [6] 94 % of control
